Assay results from ChEMBL document CHEMBL1145658, “Catharanthus alkaloids XXXVII. 16-Epi-Z-isositsirikine, a monomeric indole alkaloid with antineoplastic activity from Catharanthus roseus and Rhazya stricta” (1983).
Converted amounts (≈) assume the structure as drawn.

Assays:
KB = assay: Cytotoxicity against human KB cells; type: functional; conditions: read-out: ED50 (the source's name)
P388 = assay: In vivo antitumor activity against mouse P388 cells at 2.5 to 10 mg/kg relative to control; type: functional; conditions: dose mg/kg 2.5-10

With `C/C=C1\CN2CCc3c([nH]c4ccccc34)[C@@H]2C[C@@H]1[C@@H](CO)C(=O)OC` the EC50 (KB) was 1.2 µg/mL (≈ 3.39 µM) and the T/C (P388) was “>=150%”.
